Reference: patent publication EP0527889B1, “QUINOLIZINONE TYPE COMPOUNDS” (priority 1990, dated 1991)
Converted amounts (≈) assume the structure as drawn.

Assays:
Assay in all cases: In vitro antibacterial activity, MIC by agar dilution
Assay type in all cases: cell-based
Settings in all cases: BHI agar, 35-37°C, 20-24 hours, unit assumed
Pseudomonas cepacia 296I = tested on: Pseudomonas cepacia 296I
Experimental: (§1) Each plate was inoculated with 1:100 (or 1:10 for slow growing strains, primarily Micrococcus and Streptococcus) dilutions of up to 32 different microorganisms, using a Steers replicator block calibrated to deliver approximately 10^4 colony forming units (CFUs). The inoculated plates were incubated at from about 35°C to about 37°C for approximately 20-24 hours. In addition, a control plate using BHI agar containing no test compound was prepared and incubated at the beginning and at the end of each test. Ciprofloxacin was used as the control antibiotic.
(§2) The MIC was defined as the lowest concentration of test compound yielding no growth (a slight haze or sparsely isolated colonies at the inoculum spot) as compared to the growth control containing no test compound.

Escherichia coli SS = tested on: Escherichia coli SS
Experimental: as §1, §2

[1] = tested on: Staphylococcus aureus ATCC 6538P
Experimental: as §1, §2

[2] = tested on: Staphylococcus aureus 642A
Experimental: as §1, §2

[3] = tested on: Klebsiella pneumoniae ATCC 8045
Experimental: as §1, §2

Escherichia coli H560 = tested on: Escherichia coli H560
Experimental: as §1, §2

Escherichia coli JUHL = tested on: Escherichia coli JUHL
Experimental: as §1, §2

[4] = tested on: Enterobacter aerogenes ATCC 13048
Experimental: as §1, §2

[5] = tested on: Streptococcus pyrogenes EES61
Experimental: as §1, §2

[6] = tested on: Streptococcus pyrogenes 2548 INDUC
Experimental: as §1, §2

[7] = tested on: Staphylococcus aureus 1775
Experimental: as §1, §2

[8] = tested on: Pseudomonas aeruginosa BMH10
Experimental: as §1, §2

[9] = tested on: Staphylococcus aureus NCTC 10649
Experimental: as §1, §2

[10] = tested on: Micrococcus luteus ATCC 9341
Experimental: as §1, §2

[11] = tested on: Micrococcus luteus ATCC 4698
Experimental: as §1, §2

[12] = tested on: Streptococcus agalactaciae CMX 508
Experimental: as §1, §2

[13] = tested on: Pseudomonas aeruginosa A5007
Experimental: as §1, §2

[14] = tested on: Providencia stuartii CMX 640
Experimental: as §1, §2

[15] = tested on: Staphylococcus aureus A5177
Experimental: as §1, §2

Escherichia coli DC-2 = tested on: Escherichia coli DC-2
Experimental: as §1, §2

Escherichia coli KNK 437 = tested on: Escherichia coli KNK 437
Experimental: as §1, §2

[16] = tested on: Streptococcus bovis A5169
Experimental: as §1, §2

[17] = tested on: Pseudomonas aeruginosa K799/WT
Experimental: as §1, §2

[18] = tested on: Staphylococcus aureus A-5278
Experimental: as §1, §2

[19] = tested on: Acinetobacter calcoaceticus CMX 669
Experimental: as §1, §2

[20] = tested on: Streptococcus pyrogenes CONST
Experimental: as §1, §2

[21] = tested on: Staphylococcus epidermidis 3519
Experimental: as §1, §2

[22] = tested on: Enterococcus faecium ATCC 8043
Experimental: as §1, §2

[23] = tested on: Staphylococcus aureus CMX 553
Experimental: as §1, §2

[24] = tested on: Pseudomonas aeruginosa K799/61
Experimental: as §1, §2

[25] = tested on: Pseudomonas aeruginosa 2862
Experimental: as §1, §2

For CN1CCN(c2nc3c(-c4ccc(F)cc4)cc(C(=O)O)c(=O)n3cc2F)CC1 [Example 2, 3-Fluoro-9-(4-fluorophenyl)-2-(4-methylpiperazin-1-yl)-6H-6-oxo-pyrido[1,2-a]pyrimidine-7-carboxylic acid], the MIC values (Pseudomonas cepacia 296I) was 25 µg/mL (≈ 62.4 µM), the MIC values (Escherichia coli SS) was 0.05 µg/mL (≈ 0.125 µM) and the MIC values [1] was 0.39 µg/mL (≈ 0.974 µM). The MIC values [2] was 0.78 µg/mL (≈ 1.95 µM), the MIC values [3] was 0.2 µg/mL (≈ 0.5 µM) and the MIC values (Escherichia coli H560) was 0.39 µg/mL (≈ 0.974 µM). It also gave an MIC values (Escherichia coli JUHL) of 0.39 µg/mL (≈ 0.974 µM), an MIC values [4] of 0.78 µg/mL (≈ 1.95 µM) and an MIC values [5] of 6.2 µg/mL (≈ 15.5 µM). It also gave an MIC values [6] of 3.1 µg/mL (≈ 7.74 µM), an MIC values [7] of 25 µg/mL (≈ 62.4 µM) and an MIC values [8] of 6.2 µg/mL (≈ 15.5 µM). For the same compound, the MIC values [9] was 0.39 µg/mL (≈ 0.974 µM), the MIC values [10] was 50 µg/mL (≈ 125 µM) and the MIC values [11] was 25 µg/mL (≈ 62.4 µM). For the same compound, the MIC values [12] was 12.5 µg/mL (≈ 31.2 µM), the MIC values [13] was 6.2 µg/mL (≈ 15.5 µM) and the MIC values [14] was 25 µg/mL (≈ 62.4 µM). For the same compound, the MIC values [15] was 0.78 µg/mL (≈ 1.95 µM), the MIC values (Escherichia coli DC-2) was 12.5 µg/mL (≈ 31.2 µM) and the MIC values (Escherichia coli KNK 437) was 6.2 µg/mL (≈ 15.5 µM). It also gave an MIC values [16] of 25 µg/mL (≈ 62.4 µM), an MIC values [17] of 3.1 µg/mL (≈ 7.74 µM) and an MIC values [18] of 0.78 µg/mL (≈ 1.95 µM). The MIC values [19] was 0.78 µg/mL (≈ 1.95 µM), the MIC values [20] was 6.2 µg/mL (≈ 15.5 µM) and the MIC values [21] was 0.78 µg/mL (≈ 1.95 µM). The MIC values [22] was 25 µg/mL (≈ 62.4 µM), the MIC values [23] was 0.78 µg/mL (≈ 1.95 µM) and the MIC values [24] was 0.39 µg/mL (≈ 0.974 µM).
Compound CCc1cc(C(=O)O)c(=O)n2ccc(N3CCC(N)C3)cc12.Cl (centres unmarked) [Example 62, 8-(3-Amino-1-pyrrolidinyl)-1-ethyl-4H-quinolizin-4-one-3-carboxylic acid hydrochloride] has an MIC values (Pseudomonas cepacia 296I) of 3.1 µg/mL, an MIC values (Escherichia coli SS) of 0.39 µg/mL and an MIC values [1] of 3.1 µg/mL. The MIC values [2] was 6.2 µg/mL, the MIC values [3] was 3.1 µg/mL and the MIC values (Escherichia coli H560) was 3.1 µg/mL. The MIC values (Escherichia coli JUHL) was 3.1 µg/mL, the MIC values [4] was 3.1 µg/mL and the MIC values [5] was 25 µg/mL. It also gave an MIC values [6] of 25 µg/mL, an MIC values [8] of 6.2 µg/mL and an MIC values [9] of 6.2 µg/mL. The MIC values [10] was 25 µg/mL, the MIC values [11] was 12.5 µg/mL and the MIC values [12] was 25 µg/mL. The MIC values [13] was 6.2 µg/mL, the MIC values [14] was 25 µg/mL and the MIC values [15] was 12.5 µg/mL. It also gave an MIC values (Escherichia coli DC-2) of 25 µg/mL, an MIC values (Escherichia coli KNK 437) of 25 µg/mL and an MIC values [16] of 25 µg/mL. For the same compound, the MIC values [17] was 6.2 µg/mL, the MIC values [19] was 0.78 µg/mL and the MIC values [20] was 25 µg/mL. For the same compound, the MIC values [21] was 12.5 µg/mL, the MIC values [22] was 50 µg/mL and the MIC values [23] was 12.5 µg/mL. It also gave an MIC values [24] of 0.05 µg/mL.
With CN1CCN(c2nc3c(-c4ccc(F)cc4)cc(C(=O)O)c(=O)n3cc2F)CC1 [Example 1, 3-Fluoro-9-(4-fluorophenyl)-2-(4-methylpiperazin-1-yl)-6H-6-oxo-pyrido[1,2-a]pyrimidine-7-carboxylic acid] the MIC values (Pseudomonas cepacia 296I) was 25 µg/mL (≈ 62.4 µM), the MIC values (Escherichia coli SS) was < 0.05 µg/mL and the MIC values [1] was 0.39 µg/mL (≈ 0.974 µM). For the same compound, the MIC values [2] was 0.78 µg/mL (≈ 1.95 µM), the MIC values [3] was 0.2 µg/mL (≈ 0.5 µM) and the MIC values (Escherichia coli JUHL) was 0.39 µg/mL (≈ 0.974 µM). It also gave an MIC values [4] of 0.78 µg/mL (≈ 1.95 µM), an MIC values [5] of 6.2 µg/mL (≈ 15.5 µM) and an MIC values [6] of 3.1 µg/mL (≈ 7.74 µM). For the same compound, the MIC values [8] was 6.2 µg/mL (≈ 15.5 µM), the MIC values [9] was 0.39 µg/mL (≈ 0.974 µM) and the MIC values [10] was 50 µg/mL (≈ 125 µM). For the same compound, the MIC values [11] was 25 µg/mL (≈ 62.4 µM), the MIC values [12] was 12.5 µg/mL (≈ 31.2 µM) and the MIC values [13] was 6.2 µg/mL (≈ 15.5 µM). For the same compound, the MIC values [14] was 25 µg/mL (≈ 62.4 µM), the MIC values [15] was 0.78 µg/mL (≈ 1.95 µM) and the MIC values (Escherichia coli DC-2) was 12.5 µg/mL (≈ 31.2 µM). The MIC values (Escherichia coli KNK 437) was 6.2 µg/mL (≈ 15.5 µM), the MIC values [16] was 25 µg/mL (≈ 62.4 µM) and the MIC values [17] was 3.1 µg/mL (≈ 7.74 µM). It also gave an MIC values [19] of 0.78 µg/mL (≈ 1.95 µM), an MIC values [20] of 6.2 µg/mL (≈ 15.5 µM) and an MIC values [21] of 0.78 µg/mL (≈ 1.95 µM). The MIC values [22] was 25 µg/mL (≈ 62.4 µM), the MIC values [23] was 0.78 µg/mL (≈ 1.95 µM) and the MIC values [24] was 0.39 µg/mL (≈ 0.974 µM).
NC1CCN(c2nc3c(C4CC4)cc(C(=O)O)c(=O)n3cc2F)C1 (centres unmarked) [Example 158, 2-(3-Aminopyrrolidin-1-yl)-9-cyclopropyl-3-fluoro-6H-6-oxo-pyrido[1,2-a]pyrimidine-7-carboxylic acid] was tested, and the MIC values (Escherichia coli SS) was 0.01 µg/mL (≈ 0.0301 µM), the MIC values [2] was 0.2 µg/mL (≈ 0.602 µM) and the MIC values [3] was 0.05 µg/mL (≈ 0.15 µM). For the same compound, the MIC values (Escherichia coli JUHL) was 0.02 µg/mL (≈ 0.0602 µM), the MIC values [4] was 0.1 µg/mL (≈ 0.301 µM) and the MIC values [6] was 0.78 µg/mL (≈ 2.35 µM). It also gave an MIC values [7] of 100 µg/mL (≈ 301 µM), an MIC values [13] of 0.2 µg/mL (≈ 0.602 µM) and an MIC values [14] of 3.1 µg/mL (≈ 9.33 µM). For the same compound, the MIC values [16] was 6.2 µg/mL (≈ 18.7 µM), the MIC values [25] was 50 µg/mL (≈ 150 µM) and the MIC values [18] was 0.78 µg/mL (≈ 2.35 µM). The MIC values [21] was 0.39 µg/mL (≈ 1.17 µM).
